From PubChem BioAssay (NCI)
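GI50 = concentration required for 50% inhibition of growth. TGI marks complete inhibition of growth.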

Assays:
Assay in all cases: NCI-60 cell line screen, 384-well format
786-0 renal = tested on: 786-0 renal
A498 renal = tested on: A498 renal
A549 NSCLC = tested on: A549 NSCLC
ACHN renal = tested on: ACHN renal
BT-549 breast = tested on: BT-549 breast
CAKI-1 renal = tested on: CAKI-1 renal
CCRF-CEM leukemia = tested on: CCRF-CEM leukemia
COLO 205 colon = tested on: COLO 205 colon
DU-145 prostate = tested on: DU-145 prostate
HCC-2998 colon = tested on: HCC-2998 colon
HCT-116 colon = tested on: HCT-116 colon
HCT-15 colon = tested on: HCT-15 colon
HL-60(TB) leukemia = tested on: HL-60(TB) leukemia
HOP-62 NSCLC = tested on: HOP-62 NSCLC
HOP-92 NSCLC = tested on: HOP-92 NSCLC
HT29 colon = tested on: HT29 colon
IGROV1 ovarian = tested on: IGROV1 ovarian
K-562 leukemia = tested on: K-562 leukemia
KM12 colon = tested on: KM12 colon
LOX IMVI melanoma = tested on: LOX IMVI melanoma
M14 melanoma = tested on: M14 melanoma
MALME-3M melanoma = tested on: MALME-3M melanoma
MCF7 breast = tested on: MCF7 breast
MDA-MB-231 breast = tested on: MDA-MB-231 breast
MDA-MB-435 melanoma = tested on: MDA-MB-435 melanoma
MDA-MB-468 breast = tested on: MDA-MB-468 breast
MOLT-4 leukemia = tested on: MOLT-4 leukemia
NCI-H226 lung = tested on: NCI-H226 lung
NCI-H23 lung = tested on: NCI-H23 lung
NCI-H322M lung = tested on: NCI-H322M lung
NCI-H460 NSCLC = tested on: NCI-H460 NSCLC
NCI-H522 lung = tested on: NCI-H522 lung
NCI/ADR-RES ovarian = tested on: NCI/ADR-RES ovarian
OVCAR-3 ovarian = tested on: OVCAR-3 ovarian
OVCAR-4 ovarian = tested on: OVCAR-4 ovarian
OVCAR-5 ovarian = tested on: OVCAR-5 ovarian
OVCAR-8 ovarian = tested on: OVCAR-8 ovarian
PC-3 prostate = tested on: PC-3 prostate
RPMI-8226 leukemia = tested on: RPMI-8226 leukemia
RXF 393 renal = tested on: RXF 393 renal
SF-268 CNS = tested on: SF-268 CNS
SF-295 CNS = tested on: SF-295 CNS
SF-539 CNS = tested on: SF-539 CNS
SK-MEL-2 melanoma = tested on: SK-MEL-2 melanoma
SK-MEL-28 melanoma = tested on: SK-MEL-28 melanoma
SK-MEL-5 melanoma = tested on: SK-MEL-5 melanoma
SK-OV-3 ovarian = tested on: SK-OV-3 ovarian
SN12C renal = tested on: SN12C renal
SNB-19 CNS = tested on: SNB-19 CNS
SR leukemia = tested on: SR leukemia
SW-620 colon = tested on: SW-620 colon
T-47D breast = tested on: T-47D breast
TK-10 renal = tested on: TK-10 renal
U251 glioblastoma = tested on: U251 glioblastoma
UACC-257 melanoma = tested on: UACC-257 melanoma
UACC-62 melanoma = tested on: UACC-62 melanoma
UO-31 renal = tested on: UO-31 renal

Q: `COc1nnc2ccc(N3CCC(c4ccc(OCCN5CCN(C)C(=O)[C@H]5C)cc4)CC3)nn12` was tested. Which GI50 ([…]-0 renal) did it give?
A: 45.5 nM

Q: And the TGI (786-0 renal)?
A: 13400 nM

Q: And the GI50 (A498 renal)?
A: 53.8 nM

Q: What about the TGI (A498 renal) of the same molecule?
A: 655 nM

Q: And the GI50 (A549 NSCLC)?
A: 42.5 nM

Q: And the TGI (A549 NSCLC)?
A: 1640 nM

Q: And the GI50 (ACHN renal)?
A: 108 nM

Q: What about the TGI (ACHN renal) of the same molecule?
A: 3050 nM

Q: What about the GI50 (BT-549 breast) of the same molecule?
A: 23.1 nM

Q: What about the TGI (BT-549 breast) of the same molecule?
A: 214 nM

Q: And the GI50 (CAKI-1 renal)?
A: 16.9 nM

Q: What about the TGI (CAKI-1 renal) of the same molecule?
A: 382 nM

Q: And the GI50 (CCRF-CEM leukemia)?
A: 26.8 nM

Q: And the TGI (CCRF-CEM leukemia)?
A: 166 nM

Q: And the GI50 (COLO 205 colon)?
A: 35.9 nM

Q: And the TGI (COLO 205 colon)?
A: 248 nM

Q: And the GI50 (DU-145 prostate)?
A: 369 nM

Q: What about the TGI (DU-145 prostate) of the same molecule?
A: > 100000 nM

Q: What about the GI50 (HCC-2998 colon) of the same molecule?
A: 13.3 nM

Q: What about the TGI (HCC-2998 colon) of the same molecule?
A: 48.8 nM

Q: And the GI50 (HCT-116 colon)?
A: 37.7 nM

Q: And the TGI (HCT-116 colon)?
A: 2530 nM

Q: And the GI50 (HCT-15 colon)?
A: 31.7 nM

Q: And the TGI (HCT-15 colon)?
A: 194 nM

Q: And the GI50 (HL-60(TB) leukemia)?
A: < 10 nM

Q: What about the TGI (HL-60(TB) leukemia) of the same molecule?
A: 19.1 nM

Q: And the GI50 (HOP-62 NSCLC)?
A: 27.4 nM

Q: What about the TGI (HOP-62 NSCLC) of the same molecule?
A: 475 nM

Q: What about the GI50 (HOP-92 NSCLC) of the same molecule?
A: 12.7 nM

Q: And the TGI (HOP-92 NSCLC)?
A: 74.5 nM

Q: What about the GI50 (HT29 colon) of the same molecule?
A: 28.8 nM

Q: And the TGI (HT29 colon)?
A: 2120 nM

Q: What about the GI50 (IGROV1 ovarian) of the same molecule?
A: 29.3 nM

Q: What about the TGI (IGROV1 ovarian) of the same molecule?
A: 162 nM

Q: And the GI50 (K-562 leukemia)?
A: 35 nM

Q: What about the TGI (K-562 leukemia) of the same molecule?
A: 3710 nM

Q: And the GI50 (KM12 colon)?
A: 46 nM

Q: And the TGI (KM12 colon)?
A: 12500 nM

Q: What about the GI50 (LOX IMVI melanoma) of the same molecule?
A: 27.2 nM

Q: What about the TGI (LOX IMVI melanoma) of the same molecule?
A: 61 nM

Q: What about the GI50 (M14 melanoma) of the same molecule?
A: 18.3 nM

Q: What about the TGI (M14 melanoma) of the same molecule?
A: 1570 nM

Q: And the GI50 (MALME-3M melanoma)?
A: 73.8 nM

Q: And the TGI (MALME-3M melanoma)?
A: 791 nM

Q: And the GI50 (MCF7 breast)?
A: 11.7 nM

Q: What about the TGI (MCF7 breast) of the same molecule?
A: 158 nM

Q: What about the GI50 (MDA-MB-231 breast) of the same molecule?
A: 46.2 nM

Q: And the TGI (MDA-MB-231 breast)?
A: 2570 nM

Q: And the GI50 (MDA-MB-435 melanoma)?
A: 75.9 nM

Q: What about the TGI (MDA-MB-435 melanoma) of the same molecule?
A: > 100000 nM

Q: And the GI50 (MDA-MB-468 breast)?
A: < 10 nM

Q: What about the TGI (MDA-MB-468 breast) of the same molecule?
A: 51.2 nM

Q: What about the GI50 (MOLT-4 leukemia) of the same molecule?
A: 14.3 nM

Q: And the TGI (MOLT-4 leukemia)?
A: 37.7 nM

Q: And the GI50 (NCI-H226 lung)?
A: 38.9 nM

Q: And the TGI (NCI-H226 lung)?
A: 416 nM

Q: And the GI50 (NCI-H23 lung)?
A: 62.7 nM

Q: And the TGI (NCI-H23 lung)?
A: 629 nM

Q: What about the GI50 (NCI-H322M lung) of the same molecule?
A: 28.9 nM

Q: What about the TGI (NCI-H322M lung) of the same molecule?
A: 640 nM

Q: What about the GI50 (NCI-H460 NSCLC) of the same molecule?
A: 58.7 nM

Q: What about the TGI (NCI-H460 NSCLC) of the same molecule?
A: 15400 nM

Q: What about the GI50 (NCI-H522 lung) of the same molecule?
A: < 10 nM

Q: And the TGI (NCI-H522 lung)?
A: 46 nM

Q: What about the GI50 (NCI/ADR-RES ovarian) of the same molecule?
A: 269 nM

Q: What about the TGI (NCI/ADR-RES ovarian) of the same molecule?
A: 2180 nM

Q: What about the GI50 (OVCAR-3 ovarian) of the same molecule?
A: 17.2 nM

Q: What about the TGI (OVCAR-3 ovarian) of the same molecule?
A: 135 nM

Q: And the GI50 (OVCAR-4 ovarian)?
A: 10.2 nM

Q: And the TGI (OVCAR-4 ovarian)?
A: 40.2 nM

Q: And the GI50 (OVCAR-5 ovarian)?
A: 60.5 nM

Q: And the TGI (OVCAR-5 ovarian)?
A: 2970 nM

Q: And the GI50 (OVCAR-8 ovarian)?
A: 23.9 nM

Q: And the TGI (OVCAR-8 ovarian)?
A: 218 nM

Q: And the GI50 (PC-3 prostate)?
A: 122 nM

Q: And the TGI (PC-3 prostate)?
A: 90700 nM

Q: What about the GI50 (RPMI-8226 leukemia) of the same molecule?
A: 12.2 nM

Q: What about the TGI (RPMI-8226 leukemia) of the same molecule?
A: 33.8 nM

Q: What about the GI50 (RXF 393 renal) of the same molecule?
A: 22.8 nM

Q: And the TGI (RXF 393 renal)?
A: 78.8 nM

Q: What about the GI50 (SF-268 CNS) of the same molecule?
A: 58.6 nM

Q: What about the TGI (SF-268 CNS) of the same molecule?
A: 14400 nM

Q: And the GI50 (SF-295 CNS)?
A: 86.4 nM

Q: What about the TGI (SF-295 CNS) of the same molecule?
A: 4970 nM

Q: And the GI50 (SF-539 CNS)?
A: 53.9 nM

Q: And the TGI (SF-539 CNS)?
A: 8620 nM

Q: What about the GI50 (SK-MEL-2 melanoma) of the same molecule?
A: < 10 nM

Q: And the TGI (SK-MEL-2 melanoma)?
A: 41.3 nM

Q: And the GI50 (SK-MEL-28 melanoma)?
A: 30.6 nM

Q: What about the TGI (SK-MEL-28 melanoma) of the same molecule?
A: 1490 nM

Q: And the GI50 (SK-MEL-5 melanoma)?
A: 17.8 nM

Q: And the TGI (SK-MEL-5 melanoma)?
A: 98.6 nM

Q: What about the GI50 (SK-OV-3 ovarian) of the same molecule?
A: 17.3 nM

Q: And the TGI (SK-OV-3 ovarian)?
A: 144 nM

Q: What about the GI50 (SN12C renal) of the same molecule?
A: 165 nM

Q: What about the TGI (SN12C renal) of the same molecule?
A: 1480 nM

Q: What about the GI50 (SNB-19 CNS) of the same molecule?
A: 311 nM

Q: What about the TGI (SNB-19 CNS) of the same molecule?
A: 77900 nM

Q: What about the GI50 (SR leukemia) of the same molecule?
A: < 10 nM

Q: What about the TGI (SR leukemia) of the same molecule?
A: 20.8 nM

Q: What about the GI50 (SW-620 colon) of the same molecule?
A: 114 nM

Q: What about the TGI (SW-620 colon) of the same molecule?
A: 1280 nM

Q: And the GI50 (T-47D breast)?
A: 29.7 nM

Q: What about the TGI (T-47D breast) of the same molecule?
A: 537 nM

Q: And the GI50 (TK-10 renal)?
A: 34.8 nM

Q: And the TGI (TK-10 renal)?
A: 460 nM

Q: And the GI50 (U251 glioblastoma)?
A: 77.1 nM

Q: And the TGI (U251 glioblastoma)?
A: 11900 nM

Q: What about the GI50 (UACC-257 melanoma) of the same molecule?
A: 25 nM

Q: What about the TGI (UACC-257 melanoma) of the same molecule?
A: 573 nM

Q: And the GI50 (UACC-62 melanoma)?
A: < 10 nM

Q: What about the TGI (UACC-62 melanoma) of the same molecule?
A: 96.4 nM

Q: What about the GI50 (UO-31 renal) of the same molecule?
A: 56.9 nM

Q: And the TGI (UO-31 renal)?
A: 1560 nM
